Measured values from patent publication US7101980B2, “Derivatives, conjugates, and antibodies for detecting ecstasy-class analytes” (Roche Diagnostics Operations, Inc., priority 2002, dated 2006).

Key:
Assay type in all cases: binding, mouse
[1] = system: antibody NEAMP 1.3; assay: Cross-reactivity of NEAMP 1.3 with various drugs generated in an ELISA assay; details: antibody NEAMP 1.3 (immunogen 26, Q=KLH), MDEA as standard = 100
Experimental: Antibodies elicited by the immunogen 12, e.g., wherein T is KLH, show good response and specificity to ecstasy-class drugs. Furthermore, these antibodies show little or no cross-reactivity to related drugs. By determining the drug concentration that results in a 50% reduction in binding (ED50) of a standard, methamphetamine, dividing by the ED50 of each other drug, and then multiplying the result by 100, the percent cross-reactivity was calculated.
Tables 2, 3, and 4 show cross-reactivity data for the antibodies NEAMP 1.3, NEAMP 48.2, and NEAMP 62.1, which were generated in response to immunogen 26 of FIG. 2 wherein Q is KLH. By the procedure described above, using MDEA as a standard, the percent cross-reactivities shown in Tables 2, 3, and 4 were calculated.
Microplates were coated with 100 μL methamphetamine-BSA conjugate 28 (for screening for NEAMP 1.3) or 100 μL of MDEA-BSA conjugate 36 (for screening for NEAMP 48.2 and NEAMP 62.1), and separate microplates were coated with 100 μL N-ethylamphetamine-BSA 26 (Q=BSA, 26b) at 1 μg/mL in 0.1 M carbonate buffer, pH 9.5, for 1 hour at 37° C. (humidified). The plates were then emptied and filled with a post-coat solution containing Tris buffer, 1% gelatin hydrolysate, 2% sucrose, and 0.17% TWEEN 20. (All reagents were from Sigma Chemical Co.) The plates were incubated for an additional 1 hour at 37° C. (humidified), after which they were washed with phosphate-buffered saline containing 0.1% TWEEN 20. The plates were then filled with a 2% sucrose solution in 0.15 M Tris, pH 7.2–7.4, briefly, then emptied and allowed to air-dry at room temperature. When dried, the plates were packed in ZIPLOC bags containing several desiccant pillows, sealed, and stored at 4° C. until use.
When the growing clones were judged ready for testing, 25 μL of supernatant from the wells were taken and transferred to 96-well flexible plates. Culture medium was added to each well to provide a 1:10 dilution of the media sample. One hundred microliters of the diluted sample were transferred to each of the coated plates above. The plates were incubated covered for 1 hour at 37° C., then washed with PBS-TWEEN. The wells were then filled with 100 μL of goat anti-mouse IgG-HRP conjugate (Zymed Labs) diluted in PBS-TWEEN and the plates re-incubated for 1 hour. The plates were then washed again, and 100 μL of K Blue substrate (Neogen Corp) was added. This was allowed to develop for 5–15 minutes, the reaction being stopped by the addition of 100 μL of 1 N HCl. Color was read by means of a microplate reader at […] and collected by computer for analysis. A criterion for selection was binding to the methamphetamine-BSA conjugate 28 (for selection of NEAMP 1.3) or MDEA-BSA conjugate 36 (for screening for NEAMP 48.2 and NEAMP 62.1). Clones chosen were immediately subcloned and, when ready, retested. Stable subclones were expanded, frozen, and the spent media used to determine specificity using the cross-reactivity assay.
(§1) Supernatants were subjected to serial dilutions and re-tested in the ELISA screen above. The dilution providing for about a 50% reduction from the maximum OD was chosen for proceeding to cross-reactivity testing. This comprised repeating the preceding assay with the antibody at the chosen dilution and in the presence of varying concentrations of drugs.

[2] = system: antibody MDMA 2.1.1; assay: Cross-reactivity of antibody MDMA 2.1.1 with various drugs (ELISA cross-reactivity assay); details: antibody MDMA 2.1.1 (elicited by immunogen 12, T=KLH); ED50 of standard / ED50 of drug x 100; MDMA = 100
Experimental: In Table 1, the abbreviation d-AMP represents d-amphetamine, the abbreviation d-MAMP represents d-methamphetamine, the abbreviation l-AMP represents l-amphetamine, the abbreviation l-MAMP represents l-methamphetamine, and the abbreviation MDPA represents 3,4-methylenedioxy-N-propylamphetamine.
Microplates were coated with […] methylenedioxymethamphetamine-BSA conjugate 12 (T=BSA, 12b) at a concentration of 1 mg/mL, and separate microplates were coated with either 100 μL methamphetamine-BSA (MAMP-BSA) 28 at a concentration of 1 mg/mL or with 100 μL of amphetamine-BSA (AMP-BSA) 30 at a concentration of 1 mg/mL.
The plates were incubated covered for 1 hour at 37° C. (humidified). The plates were then emptied and filled with a post-coat solution consisting of Tris buffer, 1% gelatin hydrolysate, 2% sucrose, and 0.17% TWEEN 20. (All reagents were from Sigma Chemical Co.) The plates were incubated covered for an additional 1 hour at 37° C. (humidified), after which they were washed with phosphate-buffered saline containing 0.1% TWEEN 20. The plates were then filled with a 2% sucrose solution in 0.15 M Tris, pH 7.2–7.4, briefly, then emptied and allowed to air dry at room temperature. When dried, the plates were packed in ZIPLOC (Dow Chemical Co.) plastic bags containing several desiccant pillows, sealed, and stored at 4° C. until use.
For the primary screening of the growing clones from the fusion plates, only the MDMA-BSA 12 (T=BSA, 12b) coated plates were used. Fifty microliters of PBS was added to each well, followed by 50 μL of the sample of culture media from wells on the fusion plate, diluted 1:10 in PBS. The plates were incubated covered for 1 hour at 37° C., then washed with PBS-TWEEN (0.1%). The wells were then filled with 100 μL of goat anti-mouse IgG-HRP conjugate (Zymed Labs), diluted in PBS-TWEEN, and the plates re-incubated for 1 hour. The plates were then washed again and 100 μL of K-Blue Substrate (Neogen Corp.) added. This was allowed to develop for 5–15 minutes, the reaction being stopped by the addition of 100 μL of 1 N HCl. Color was read by means of a microplate reader at 450 nm and collected by computer for analysis. […] Cells were subjected to limiting dilution subcloning, and upon appearance of growth, were tested by a secondary screen.
as §1

[3] = system: antibody NEAMP 48.2; assay: Cross-reactivity of NEAMP 48.2 with various drugs generated in a KIMS assay (ONLINE DAT II); details: antibody NEAMP 48.2 (immunogen 26, Q=KLH); KIMS immunoassay; MDEA as standard = 100
[4] = system: antibody NEAMP 62.1; assay: Cross-reactivity of NEAMP 62.1 with various drugs generated in a KIMS assay (ONLINE DAT II); details: antibody NEAMP 62.1 (immunogen 26, Q=KLH); KIMS immunoassay; MDEA as standard = 100

SMILES	% Cross-reactivity [1] [%]	% Cross-reactivity [2] [%]	% Cross-reactivity [3] [%]	% Cross-reactivity [4] [%]
C[C@H](N)Cc1ccccc1 [d-AMP, d-amphetamine]	6.4	0	0	
C[C@@H](N)Cc1ccccc1 [l-AMP, l-amphetamine]	6.6	0		
CCC(Cc1ccc2c(c1)OCO2)NC (centres unmarked) [MBDB, 3,4-methylenedioxyphenyl-N-methylbutanamine]	3.9	26.1	6	13
CC(N)Cc1ccc2c(c1)OCO2 (centres unmarked) [MDA, 3,4-methylenedioxyamphetamine]		60.6		
CN[C@@H](C)Cc1ccccc1 [d-MAMP, d-methamphetamine]	19.7	0.65		0.5
CN[C@@H](C)[C@@H](O)c1ccccc1 [pseudoephedrine]		0		
CN[C@@H](C)[C@@H](O)c1ccccc1 [d-pseudoephedrine]	0.4		0.06	0.1
c1cc2c(cc1[C@H]1OC[C@H]3[C@@H]1CO[C@@H]3c1ccc3c(c1)OCO3)OCO2 [sesamin]		0		
C[C@H]1[C@H](c2ccccc2)OCCN1C [phendimetrazine]	0.12		0.04	0.1
CCCNC(C)Cc1ccc2c(c1)OCO2 (centres unmarked) [MDPA, 3,4-methylenedioxy-N-propylamphetamine]		365		
CCC(N)Cc1ccc2c(c1)OCO2 (centres unmarked) [BDB, 3,4-methylenedioxyphenyl-2-butanamine]		20.5	1	46
CN[C@@H](C)[C@H](O)c1ccccc1 [l-ephedrine]	1.3		0	0.0
CNC(C)Cc1ccc2c(c1)OCO2 (centres unmarked) [MDMA, 3,4-methylenedioxy-N-methylamphetamine]	22.5	100	5	4.0
CCNC(C)Cc1ccc2c(c1)OCO2 (centres unmarked) [MDEA, 3,4-methylenedioxy-N-ethylamphetamine]	100	204	100	100
CC(N)C(O)c1ccccc1 (centres unmarked) [phenylpropanolamine]		0		
NC[C@H](O)c1ccc(O)c(O)c1 [norepinephrine]		0		
NCCc1ccc(O)cc1 [tyramine]		0		
CNCC(O)c1ccc(O)c(O)c1 (centres unmarked) [adrenaline]		0		
CN[C@H](C)Cc1ccccc1 [l-MAMP, l-methamphetamine]		0	0.5	0.2
CC(C)(N)Cc1ccccc1 [phentermine]		0		
CCNC(C)Cc1ccccc1 (stereo not drawn) [d-N-ethylamphetamine]			130	11
CN[C@@H](C)[C@H](O)c1ccccc1 [ephedrine]		0		
